Reference: patent US8546409B2, “Methods of treatment for solid tumors” (priority 2009, dated 2013)
Entries after “also recorded” stand apart in the source; their conditions may differ. Like-named read-outs stand apart in the source and are kept apart here.

What was measured:
COLO 205 = test: NCI panel growth inhibition, COLO 205; format: cell-based; conditions: Homo sapiens, Colon Cancer
Source text: (§1) Compound I has also been tested in a battery of tumor cell assays known as the NCI panel.

PIKC3 = PIKC3 (Homo sapiens, UniProt Q8NEB9); test: biochemical
PIKC3, sequence (Q8NEB9 whole entry): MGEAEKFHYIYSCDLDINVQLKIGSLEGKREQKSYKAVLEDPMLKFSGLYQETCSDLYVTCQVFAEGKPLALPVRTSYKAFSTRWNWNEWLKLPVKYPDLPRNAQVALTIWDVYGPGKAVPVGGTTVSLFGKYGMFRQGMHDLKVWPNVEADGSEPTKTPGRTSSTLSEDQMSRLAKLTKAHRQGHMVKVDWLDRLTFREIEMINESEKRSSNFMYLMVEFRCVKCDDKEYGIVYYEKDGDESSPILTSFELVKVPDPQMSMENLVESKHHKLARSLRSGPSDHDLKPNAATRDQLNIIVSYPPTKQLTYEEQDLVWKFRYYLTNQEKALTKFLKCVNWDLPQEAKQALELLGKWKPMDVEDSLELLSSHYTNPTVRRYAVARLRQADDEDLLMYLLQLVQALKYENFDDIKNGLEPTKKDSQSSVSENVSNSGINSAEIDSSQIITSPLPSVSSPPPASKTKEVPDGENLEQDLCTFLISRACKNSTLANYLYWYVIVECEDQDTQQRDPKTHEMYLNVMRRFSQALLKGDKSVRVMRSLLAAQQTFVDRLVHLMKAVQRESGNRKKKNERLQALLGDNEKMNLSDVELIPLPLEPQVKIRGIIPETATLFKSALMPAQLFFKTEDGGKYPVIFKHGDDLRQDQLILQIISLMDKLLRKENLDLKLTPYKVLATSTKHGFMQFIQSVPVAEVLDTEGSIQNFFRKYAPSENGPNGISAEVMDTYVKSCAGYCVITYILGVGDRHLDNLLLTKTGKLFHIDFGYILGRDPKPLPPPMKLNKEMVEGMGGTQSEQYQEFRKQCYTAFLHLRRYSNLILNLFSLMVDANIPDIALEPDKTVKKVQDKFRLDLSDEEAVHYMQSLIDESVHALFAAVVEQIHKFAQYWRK
Source text: This table provides IC-50's for inhibition of kinase activity of these other lipid kinases: […]

ACHN = test: NCI panel growth inhibition, ACHN; format: cell-based; conditions: Homo sapiens, Renal
Source text: as §1

RXF 393 = test: NCI panel growth inhibition, RXF 393; format: cell-based; conditions: Homo sapiens, Renal
Source text: as §1

T-47D = test: NCI panel growth inhibition, T-47D; format: cell-based; conditions: Homo sapiens, T47D, Breast Cancer
Source text: as §1

DNA-PK = DNA-PK (Homo sapiens, UniProt P78527); test: Inhibition of kinase activity of other lipid kinases, DNA-PK; format: biochemical; conditions: read-out: IC-50 for inhibition of kinase activity, DNA-PK
UO-31 = test: NCI panel growth inhibition, UO-31; format: cell-based; conditions: Homo sapiens, Renal
Source text: as §1

[1] = test system: NCI panel cancer cell lines; test: NCI panel of tumor cell assays, summary over cell lines; format: cell-based; conditions: for Cell line number: GI50 less than 2 micromolar
Source text: Compound I has also been tested in a battery of tumor cell assays known as the NCI panel. […] Using this measure, 1.8% of cell lines were particularly sensitive to Compound B at this level, while 39% were particularly sensitive to Compound I at the same concentration. […] Loss of PTEN activity often occurs in cancers, and enhances the sensitivity of a tumor to PI3K inhibitors. […] The following Table summarizes the cell lines found to be sensitive to Compound I and the known mutations in those cell lines.

OVCAR-3 = test: Tumor cell culture growth, optical density at 459 nm (FIG. 7), OVCAR-3; format: cell-based; conditions: OVCAR-3, 5-10 micromolar
HS 578T = test: NCI panel growth inhibition, HS 578T; format: cell-based; conditions: Homo sapiens, Breast Cancer
Source text: as §1

p110δ = biological target: T1, p110δ (Homo sapiens, UniProt O00329); test: Cell-based p110δ assay: anti-FcεR1 stimulated CD63 movement to surface of basophils
T1 construct: endogenous in cells
T1 sequence (O00329 whole entry, species assumed): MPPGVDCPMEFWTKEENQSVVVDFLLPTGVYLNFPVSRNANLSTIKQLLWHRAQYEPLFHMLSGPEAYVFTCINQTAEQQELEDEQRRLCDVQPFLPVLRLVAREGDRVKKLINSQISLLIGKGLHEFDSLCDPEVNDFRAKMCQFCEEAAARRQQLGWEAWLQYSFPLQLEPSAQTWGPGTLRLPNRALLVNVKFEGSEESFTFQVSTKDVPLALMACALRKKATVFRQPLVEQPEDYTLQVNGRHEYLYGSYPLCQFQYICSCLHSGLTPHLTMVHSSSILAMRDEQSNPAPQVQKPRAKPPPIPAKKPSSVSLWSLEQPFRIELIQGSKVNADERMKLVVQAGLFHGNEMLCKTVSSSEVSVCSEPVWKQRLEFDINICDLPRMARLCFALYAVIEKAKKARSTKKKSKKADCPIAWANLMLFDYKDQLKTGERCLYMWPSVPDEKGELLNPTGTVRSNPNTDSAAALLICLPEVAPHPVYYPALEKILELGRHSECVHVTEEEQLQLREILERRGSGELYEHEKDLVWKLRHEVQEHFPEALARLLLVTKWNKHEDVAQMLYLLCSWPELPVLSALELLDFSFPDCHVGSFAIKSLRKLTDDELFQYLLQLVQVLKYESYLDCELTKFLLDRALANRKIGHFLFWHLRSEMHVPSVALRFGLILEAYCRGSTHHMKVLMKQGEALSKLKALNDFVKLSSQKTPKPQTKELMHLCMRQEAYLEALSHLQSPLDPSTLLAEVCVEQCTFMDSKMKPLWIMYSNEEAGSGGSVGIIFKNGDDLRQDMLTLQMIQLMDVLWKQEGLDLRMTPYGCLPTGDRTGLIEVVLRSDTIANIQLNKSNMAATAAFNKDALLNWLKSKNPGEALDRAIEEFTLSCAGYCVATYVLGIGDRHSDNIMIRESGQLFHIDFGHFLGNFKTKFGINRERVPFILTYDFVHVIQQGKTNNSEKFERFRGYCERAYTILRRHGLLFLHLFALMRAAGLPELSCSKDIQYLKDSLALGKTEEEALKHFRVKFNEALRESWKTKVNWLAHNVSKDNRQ
T1 sequence (P27986 whole entry partner, species assumed): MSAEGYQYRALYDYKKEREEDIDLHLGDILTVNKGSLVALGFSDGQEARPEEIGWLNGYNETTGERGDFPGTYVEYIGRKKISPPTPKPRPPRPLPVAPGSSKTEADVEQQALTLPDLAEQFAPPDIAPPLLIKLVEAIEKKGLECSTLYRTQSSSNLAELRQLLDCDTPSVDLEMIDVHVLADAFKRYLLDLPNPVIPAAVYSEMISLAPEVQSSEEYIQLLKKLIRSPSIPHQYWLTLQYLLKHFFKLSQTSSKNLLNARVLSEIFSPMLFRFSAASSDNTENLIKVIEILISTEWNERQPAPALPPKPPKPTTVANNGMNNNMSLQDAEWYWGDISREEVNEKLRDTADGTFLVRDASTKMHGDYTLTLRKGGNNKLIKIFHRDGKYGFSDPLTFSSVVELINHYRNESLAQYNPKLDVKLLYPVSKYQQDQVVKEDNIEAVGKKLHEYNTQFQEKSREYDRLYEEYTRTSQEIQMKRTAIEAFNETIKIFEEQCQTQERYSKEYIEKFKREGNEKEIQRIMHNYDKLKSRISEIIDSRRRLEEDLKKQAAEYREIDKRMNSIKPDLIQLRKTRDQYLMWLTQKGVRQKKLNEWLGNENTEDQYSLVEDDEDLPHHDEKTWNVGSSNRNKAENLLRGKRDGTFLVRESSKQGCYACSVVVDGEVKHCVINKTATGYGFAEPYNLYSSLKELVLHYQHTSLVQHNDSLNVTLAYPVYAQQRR
Method: The p110α assay used SW3T3 cells stimulated by PDGF, and p110 kinase activity was measured by Akt phosphorylation. The p110β activity was measured by lysophosphatidic acid stimulation of Akt phosphorylation in mouse embryonic fibroblasts. The activity of p110δ was measured by anti-FcεR1 antibody cross linking stimulation of CD63 movement to the surface of basophils. Finally, the activity of p110γ was measured by fMLP stimulation of CD63 antigen movement to the cell surface of basophils.

[2] = mouse
Source text: Bioavailability of Compound I upon oral administration is especially good; even compared to other quinazolinones of similar structures. For example, FIG. 6 illustrates that Compound I produces higher plasma concentrations of drug than another quinazolinone compound having a similar structure (Compound B). […] The degree of difference in oral bioavailability between Compound I and Compound B observed in this test is surprising.
Treatments of the invention typically involve administration of compound Ito a subject in need of treatment on a daily basis for at least one week or more than one week, often for 2-4 weeks, and sometimes for 1-3 months or more. The half-life of Compound I in vivo in mice and rats is several hours—see FIG. 6. It is thus sometimes desirable to administer compound I in multiple doses each day, in order to maintain efficacious plasma levels over a prolonged period of time. Administration may be done in two doses per day, or three doses per day, or in some embodiments, four doses per day or more, particularly when Compound I is administered orally. Alternatively, Compound I can be administered intravenously at a rate that maintains an efficacious plasma level for a prolonged period of time. Suitably, it would be administered at a rate to achieve a plasma level of at least about 1 micromolar, or at least 3 micromolar, or at least 5 micromolar.

A498 xenografts = test: Renal cancer xenografts in nu/nu mice (FIG. 9); format: in vivo; conditions: 30 mg/kg BID, 20 days, female nu/nu mice
Method: Female nu/nu mice bearing A498 xenografts (human renal cancer cells) were maintained until tumor volume measured about 100 mm^3. At that point, treatment began with compound I at a rate of 30 mg/kg administered twice per day.

HOP-62 = test: NCI panel growth inhibition, HOP-62; format: cell-based; conditions: Homo sapiens, Non-Small Cell Lung Cancer
Source text: as §1

U251 = test: NCI panel growth inhibition, U251; format: cell-based; conditions: Homo sapiens, U-251, CNS Cancer
Source text: as §1

SNB-19 = test: NCI panel growth inhibition, SNB-19; format: cell-based; conditions: Homo sapiens, CNS Cancer
Source text: as §1

mTOR = mTOR (Homo sapiens, UniProt P42345); test: Inhibition of kinase activity of other lipid kinases, mTOR; format: biochemical; conditions: read-out: IC-50 for inhibition of kinase activity, mTOR

For `C[C@H](Nc1ncnc2[nH]cnc12)c1nc2ccc(F)cc2c(=O)n1-c1ccccc1` [Compound I], which GI50 (COLO 205) is on record?
Its GI50 is 33.8 µM.

And the IC50 (PIKC3)?
The IC50 was 2.5 µM.

What about the GI50 (ACHN) of the same molecule?
The GI50 was 10.7 µM.

What about the GI50 (RXF 393) of the same molecule?
The GI50 was 1.14 µM.

What about the GI50 (T-47D) of the same molecule?
Its GI50 is 0.571 µM.

What about the IC50 (DNA-PK) of the same molecule?
Its IC50 is 13 µM.

What about the GI50 (UO-31) of the same molecule?
Its GI50 is 2.01 µM.

And the “% EC50 < 2 μM” value ([1]; Breast)?
The value was 62%.

What about the Cell line number ([1]; Breast) of the same molecule?
Its Cell line number is 5/8.

And the “% EC50 < 2 μM” value ([1]; CNS)?
Its value is 50%.

And the Cell line number ([1]; CNS)?
The Cell line number was 3/6.

What about the “% EC50 < 2 μM” value ([1]; Colon) of the same molecule?
The value was 14%.

What about the Cell line number ([1]; Colon) of the same molecule?
Its Cell line number is 1/7.

What about the “% EC50 < 2 μM” value ([1]; Melanoma) of the same molecule?
Its value is 12%.

What about the Cell line number ([1]; Melanoma) of the same molecule?
The Cell line number was 1/8.

What about the “Cell lines with mutations in PTEN inhibited” value ([1]; NCI panel cell lines known to have PTEN mutations) of the same molecule?
Its value is 70%.

What about the “% EC50 < 2 μM” value ([1]; NSCLC) of the same molecule?
Its value is 11%.

What about the Cell line number ([1]; NSCLC) of the same molecule?
Its Cell line number is 1/9.

What about the “% EC50 < 2 μM” value ([1]; Ovarian) of the same molecule?
Its value is 33%.

And the Cell line number ([1]; Ovarian)?
The Cell line number was 2/6.

And the Cell line number ([1]; Prostate)?
Its Cell line number is 2/2.

What about the “% EC50 < 2 μM” value ([1]; Prostrate) of the same molecule?
The value was 100%.

What about the “% EC50 < 2 μM” value ([1]; Renal) of the same molecule?
Its value is 75%.

And the Cell line number ([1]; Renal)?
Its Cell line number is 6/8.

And the “Cell lines particularly sensitive (GI50 of 2 micromolar or less)” value ([1]; all NCI panel cell lines)?
The value was 39%.

What about the “Inhibition of tumor cell culture growth” value (OVCAR-3) of the same molecule?
The value was “strong inhibition of growth”.

What about the GI50 (HS 578T) of the same molecule?
Its GI50 is 2.24 µM.

What about the EC50 (p110δ; FB, read-out: Cell-based assay EC50 p110δ, FB) of the same molecule?
The EC50 was 0.0084 µM.

And the EC50 (p110δ; WB, read-out: Cell-based assay EC50 p110δ, WB)?
Its EC50 is 0.019 µM.

And the Half-life in vivo [2]?
The Half-life in vivo was “several hours”.

What about the “Peak plasma level compared to Compound B” value ([2]; in vivo, po) of the same molecule?
Its value is “higher peak plasma level”.

And the “Plasma level maintained for several hours” value ([2]; in vivo, po, 20 mg/kg)?
The value was “about 500 ng/mL”.

What about the “Tumor volume of A498 xenograft” value (A498 xenografts) of the same molecule?
Its value is “significantly inhibited growth; also recorded: tumor volume approximately doubled”.

What about the “Tumor volume of A498 xenograft” value (A498 xenografts; listed as compound I) of the same molecule?
Its value is “significant reduction in tumor growth”.

And the GI50 (HOP-62)?
Its GI50 is 14.8 µM.

What about the GI50 (U251) of the same molecule?
Its GI50 is 59.6 µM.

What about the GI50 (SNB-19) of the same molecule?
The GI50 was 19.3 µM.

And the IC50 (mTOR)?
The IC50 was 100 µM.
